target: Protein tyrosine phosphatase type IVA 3 (Homo sapiens, UniProt O75365); experiment: Inhibition of human PRL3 expressed in Escherichia coli BL21 (DE3)
Sequence (O75365 whole entry): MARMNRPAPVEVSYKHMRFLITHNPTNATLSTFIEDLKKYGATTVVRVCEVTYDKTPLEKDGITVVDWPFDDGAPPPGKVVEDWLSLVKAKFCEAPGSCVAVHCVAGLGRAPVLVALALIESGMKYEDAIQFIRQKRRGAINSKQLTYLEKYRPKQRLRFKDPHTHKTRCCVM

**Q.** `O=C1NC(=S)S/C1=C/c1ccc(-c2ccccc2C(=O)O)o1` was tested. Which IC50 did it give?
**A.** 13.3 µM

**Q.** Which IC50 does the source give for `COc1ccc(-n2nnnc2SCC(=O)c2ccc(O)c(O)c2)cc1` here?
**A.** 44.7 µM

**Q.** For `N#CC1=C(S)N(c2ccccc2)C(/C=C/c2ccc(-c3ccc(Cl)cc3)o2)NC1=O` (stereo not given), which IC50 is on record?
**A.** 18.3 µM

**Q.** `O=C1NC(=O)/C(=C\c2cccn2-c2ccc(C(=O)O)cc2)N1` was tested. Which IC50 did it give?
**A.** 28.1 µM

**Q.** With `C=CCn1c(SCC(=O)c2ccc(O)c(O)c2)nnc1-c1cccc(Cl)c1` as the compound, how does the IC50 read?
**A.** 43.8 µM

Reference: ChEMBL document CHEMBL1141551, “Discovery of novel PRL-3 inhibitors based on the structure-based virtual screening” (Bioorg Med Chem Lett, 2008)
